{"source": "patent US9340590B2", "about": "(priority 2011, dated 2016)", "experiment_in_all_cases": "cell-based", "key": {"hNav1.7 [1]": {"target": "T1, hNav1.7 (Homo sapiens, UniProt Q15858)", "T1 sequence (Q15858 whole entry, looked up)": "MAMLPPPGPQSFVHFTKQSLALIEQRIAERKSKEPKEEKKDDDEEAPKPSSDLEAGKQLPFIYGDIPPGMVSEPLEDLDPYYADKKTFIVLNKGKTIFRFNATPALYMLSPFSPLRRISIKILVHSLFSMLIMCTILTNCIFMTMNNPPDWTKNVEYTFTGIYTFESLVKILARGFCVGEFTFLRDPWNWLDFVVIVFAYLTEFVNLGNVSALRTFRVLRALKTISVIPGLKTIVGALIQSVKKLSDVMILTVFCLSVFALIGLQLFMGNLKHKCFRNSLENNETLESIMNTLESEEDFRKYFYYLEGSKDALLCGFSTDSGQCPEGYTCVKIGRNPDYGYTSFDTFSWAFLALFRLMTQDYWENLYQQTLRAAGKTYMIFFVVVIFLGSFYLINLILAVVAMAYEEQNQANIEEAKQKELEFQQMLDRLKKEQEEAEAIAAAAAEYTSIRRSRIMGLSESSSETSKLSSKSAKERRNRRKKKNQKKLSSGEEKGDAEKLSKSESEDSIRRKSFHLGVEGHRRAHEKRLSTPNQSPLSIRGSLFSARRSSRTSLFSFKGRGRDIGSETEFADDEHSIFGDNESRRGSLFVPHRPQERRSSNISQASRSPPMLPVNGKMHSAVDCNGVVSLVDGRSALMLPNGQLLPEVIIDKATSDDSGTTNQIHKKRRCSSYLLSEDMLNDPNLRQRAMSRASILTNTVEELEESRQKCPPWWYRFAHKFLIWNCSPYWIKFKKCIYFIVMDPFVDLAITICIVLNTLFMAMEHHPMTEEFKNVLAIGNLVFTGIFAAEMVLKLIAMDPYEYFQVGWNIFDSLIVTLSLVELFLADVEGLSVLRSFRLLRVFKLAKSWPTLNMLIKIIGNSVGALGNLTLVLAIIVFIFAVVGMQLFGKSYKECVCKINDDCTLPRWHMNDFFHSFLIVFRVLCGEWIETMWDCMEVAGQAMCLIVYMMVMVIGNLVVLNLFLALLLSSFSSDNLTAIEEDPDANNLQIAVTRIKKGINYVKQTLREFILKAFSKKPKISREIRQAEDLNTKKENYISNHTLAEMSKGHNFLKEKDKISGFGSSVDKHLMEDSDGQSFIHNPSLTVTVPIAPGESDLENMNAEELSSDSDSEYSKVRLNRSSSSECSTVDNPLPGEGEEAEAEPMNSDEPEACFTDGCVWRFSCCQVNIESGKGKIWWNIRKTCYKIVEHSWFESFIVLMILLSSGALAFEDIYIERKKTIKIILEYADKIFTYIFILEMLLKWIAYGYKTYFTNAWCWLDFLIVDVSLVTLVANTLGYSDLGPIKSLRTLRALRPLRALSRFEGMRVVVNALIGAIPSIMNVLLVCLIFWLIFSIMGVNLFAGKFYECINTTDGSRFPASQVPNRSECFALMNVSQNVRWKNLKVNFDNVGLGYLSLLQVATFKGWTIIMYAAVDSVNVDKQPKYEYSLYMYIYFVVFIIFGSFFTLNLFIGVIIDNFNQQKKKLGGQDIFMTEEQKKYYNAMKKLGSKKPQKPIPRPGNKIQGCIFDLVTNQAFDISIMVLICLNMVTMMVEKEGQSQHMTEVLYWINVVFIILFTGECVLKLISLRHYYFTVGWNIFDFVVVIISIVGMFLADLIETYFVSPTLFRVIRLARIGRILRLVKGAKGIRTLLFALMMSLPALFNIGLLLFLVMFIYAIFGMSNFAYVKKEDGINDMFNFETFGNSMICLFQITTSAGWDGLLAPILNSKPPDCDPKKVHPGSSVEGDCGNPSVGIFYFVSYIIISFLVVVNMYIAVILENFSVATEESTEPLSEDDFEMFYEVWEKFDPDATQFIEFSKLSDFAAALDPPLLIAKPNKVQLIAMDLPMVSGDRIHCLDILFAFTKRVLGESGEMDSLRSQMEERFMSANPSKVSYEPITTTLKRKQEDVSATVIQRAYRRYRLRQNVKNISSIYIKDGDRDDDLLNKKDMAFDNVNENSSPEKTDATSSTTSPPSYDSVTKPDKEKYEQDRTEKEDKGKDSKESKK", "settings": "Nav1.7 Use IC50"}, "hNav1.5 [2]": {"target": "T2, hNav1.5 (Homo sapiens, UniProt Q14524)", "T2 sequence (Q14524 whole entry, looked up)": "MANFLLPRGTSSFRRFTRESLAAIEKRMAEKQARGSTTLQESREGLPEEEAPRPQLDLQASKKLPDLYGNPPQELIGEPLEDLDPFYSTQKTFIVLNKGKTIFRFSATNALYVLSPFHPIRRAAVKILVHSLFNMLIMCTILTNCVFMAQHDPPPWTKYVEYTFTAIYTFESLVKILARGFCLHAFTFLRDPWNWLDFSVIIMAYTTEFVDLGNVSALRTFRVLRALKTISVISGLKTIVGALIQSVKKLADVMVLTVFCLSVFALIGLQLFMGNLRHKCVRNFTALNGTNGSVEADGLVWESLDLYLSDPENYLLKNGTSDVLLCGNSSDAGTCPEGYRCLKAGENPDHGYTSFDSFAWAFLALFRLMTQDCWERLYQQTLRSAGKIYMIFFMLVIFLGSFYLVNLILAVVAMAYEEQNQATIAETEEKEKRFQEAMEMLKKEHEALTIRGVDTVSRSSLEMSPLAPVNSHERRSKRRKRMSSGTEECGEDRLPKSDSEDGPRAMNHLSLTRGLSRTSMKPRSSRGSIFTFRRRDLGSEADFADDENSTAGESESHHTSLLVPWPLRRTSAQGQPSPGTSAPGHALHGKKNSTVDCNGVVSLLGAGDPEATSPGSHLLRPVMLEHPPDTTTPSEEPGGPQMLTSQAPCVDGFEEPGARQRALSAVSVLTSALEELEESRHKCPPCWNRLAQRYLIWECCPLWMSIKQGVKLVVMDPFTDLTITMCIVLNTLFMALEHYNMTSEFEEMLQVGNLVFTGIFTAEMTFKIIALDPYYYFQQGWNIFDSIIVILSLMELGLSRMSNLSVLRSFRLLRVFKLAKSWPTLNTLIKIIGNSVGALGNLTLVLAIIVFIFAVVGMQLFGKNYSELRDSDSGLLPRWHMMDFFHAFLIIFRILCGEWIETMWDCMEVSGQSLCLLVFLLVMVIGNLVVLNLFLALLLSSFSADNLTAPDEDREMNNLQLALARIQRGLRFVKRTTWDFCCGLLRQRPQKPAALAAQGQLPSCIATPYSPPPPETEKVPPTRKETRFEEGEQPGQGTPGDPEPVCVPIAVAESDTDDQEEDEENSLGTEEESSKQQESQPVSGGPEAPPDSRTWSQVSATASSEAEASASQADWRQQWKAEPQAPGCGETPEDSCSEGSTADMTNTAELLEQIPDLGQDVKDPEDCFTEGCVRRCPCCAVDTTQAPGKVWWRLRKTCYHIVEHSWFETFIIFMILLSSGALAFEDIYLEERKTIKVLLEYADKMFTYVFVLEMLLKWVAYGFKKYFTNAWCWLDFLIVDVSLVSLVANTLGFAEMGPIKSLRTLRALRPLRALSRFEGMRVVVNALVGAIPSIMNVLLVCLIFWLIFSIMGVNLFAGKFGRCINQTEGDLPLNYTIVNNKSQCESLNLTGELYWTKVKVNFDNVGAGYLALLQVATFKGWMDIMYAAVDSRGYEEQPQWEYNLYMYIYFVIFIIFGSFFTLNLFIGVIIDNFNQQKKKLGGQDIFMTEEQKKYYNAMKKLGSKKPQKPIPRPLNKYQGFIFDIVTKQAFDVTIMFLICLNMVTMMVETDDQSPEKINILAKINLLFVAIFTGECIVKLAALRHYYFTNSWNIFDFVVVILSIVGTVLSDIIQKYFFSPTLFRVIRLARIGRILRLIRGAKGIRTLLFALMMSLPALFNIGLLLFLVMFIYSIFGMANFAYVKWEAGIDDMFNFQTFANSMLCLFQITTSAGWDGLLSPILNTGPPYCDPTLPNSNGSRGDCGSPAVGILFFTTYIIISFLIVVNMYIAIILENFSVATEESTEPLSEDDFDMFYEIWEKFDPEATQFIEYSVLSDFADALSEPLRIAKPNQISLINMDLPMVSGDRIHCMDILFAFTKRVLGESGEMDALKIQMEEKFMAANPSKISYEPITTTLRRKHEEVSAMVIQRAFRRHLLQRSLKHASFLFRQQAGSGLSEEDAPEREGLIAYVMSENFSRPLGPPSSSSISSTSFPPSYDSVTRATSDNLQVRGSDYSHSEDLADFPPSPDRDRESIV"}, "hNav1.7 [3]": {"target": "T1, hNav1.7", "assay_type": "cell-based"}, "hNav1.3": {"target": "hNav1.3 (Homo sapiens, UniProt Q9NY46)", "settings": "IonWorks Quattro; clamped to −110 mV, depolarized to −10 mV, 5 min after compound; n=2; read-out: IWQ Use Nav1.3"}, "hNav1.5 [4]": {"target": "T2, hNav1.5", "settings": "IonWorks Quattro; clamped to −110 mV, depolarized to −10 mV, 5 min after compound; n=2; read-out: IWQ Use Nav1.5"}}, "note": "Read-outs that look alike come from different tables or passages of the source. Positions of bridges follow the written chain, without caps; N, C: chain ends. Non-standard residues stand in square brackets, D forms with d. Residues, ends and D or L forms follow the SMILES beside them. *: point of attachment. DOTA = O=C(O)CN1CCN(CC(=O)O)CCN(CC(=O)*)CCN(CC(=O)O)CC1; Pra = C#CC[C@H](N)C(=O)O; Abu = CC[C@H](N)C(=O)O"}
{"smiles": "CC[C@H](C)[C@@H]1NC(=O)[C@@H]2CSSC[C@@H]3NC(=O)[C@H](C(C)C)NC(=O)[C@H](CC(C)C)NC(=O)[C@H](CC(N)=O)NC(=O)[C@@H]4CCCN4C(=O)[C@H](CCCNC(=N)N)NC(=O)[C@H](CSSC[C@H](NC(=O)[C@@H](N)CC(=O)O)C(=O)N[C@@H](CC(C)C)C(=O)NCC(=O)N[C@@H](C)C(=O)N[C@@H](Cc4ccccc4)C(=O)N[C@@H](CCCNC(=N)N)C(=O)N[C@@H](CCCCN)C(=O)N2)NC(=O)[C@H](CSSC[C@@H](C(=O)N[C@@H](CCCCN)C(=O)N[C@@H](Cc2ccc(O)cc2)C(=O)N[C@H](C(=O)N[C@@H](Cc2ccccc2)C(N)=O)C(C)C)NC(=O)[C@H](Cc2c[nH]c4ccccc24)NC(=O)[C@H](CCCNC(=N)N)NC(=O)[C@H](Cc2c[nH]cn2)NC(=O)[C@H](CC(C)C)NC(=O)[C@H](CCCNC(=N)N)NC(=O)[C@H](CO)NC3=O)NC(=O)[C@H](CCCCN)NC(=O)[C@H](CC(=O)O)NC(=O)[C@H](Cc2cn(CCOCCOCCOCCOCCOCCOCCOCCOCCOCCOCCOCCNC(=O)CSCCO)nn2)NC(=O)[C@H](CC(=O)O)NC(=O)[C@@H]2CCCN2C1=O", "values": [{"measurement": "IC50", "setting": "hNav1.7 [1]", "value": 35, "unit": "nM"}, {"measurement": "IC50", "setting": "hNav1.5 [2]", "value": "> 10000", "unit": "nM"}]}
{"smiles": "CC[C@@H]1NC(=O)[C@H](CC(=O)O)NC(=O)[C@@H]2CCCN2C(=O)[C@H](CCC(=O)O)NC(=O)[C@@H]2CSSC[C@@H]3NC(=O)[C@H](C(C)C)NC(=O)[C@H](CC(C)C)NC(=O)[C@H](CC(N)=O)NC(=O)[C@@H]4CCCN4C(=O)[C@H](CCCNC(=N)N)NC(=O)[C@H](CSSC[C@H](NC(=O)[C@@H](N)CC(=O)O)C(=O)N[C@@H](CC(C)C)C(=O)NCC(=O)N[C@@H](C)C(=O)N[C@@H](Cc4ccccc4)C(=O)N[C@@H](CCCNC(=N)N)C(=O)N[C@@H](CCCCN)C(=O)N2)NC(=O)[C@H](CSSC[C@@H](C(=O)N[C@@H](CCCCN)C(=O)N[C@@H](Cc2ccc(O)cc2)C(=O)N[C@H](C(=O)N[C@@H](Cc2ccccc2)C(N)=O)C(C)C)NC(=O)[C@H](Cc2c[nH]c4ccccc24)NC(=O)[C@H](CCCNC(=N)N)NC(=O)[C@H](Cc2c[nH]cn2)NC(=O)[C@H](CC(C)C)NC(=O)[C@H](CCCNC(=N)N)NC(=O)[C@H](CO)NC3=O)NC(=O)[C@H](CCCCN)NC(=O)[C@H](CC(=O)O)NC1=O", "note": "(H-DCLGAFRKCEPD[Abu]DKCCRPNLVCSRLHRWCKYVF-NH2; disulfide 2-17, 9-23, 16-30)", "values": [{"measurement": "IC50", "setting": "hNav1.7 [1]", "value": 3.5, "unit": "nM"}, {"measurement": "IC50", "setting": "hNav1.5 [2]", "value": "> 10000", "unit": "nM"}]}
{"smiles": "C#CC[C@@H]1NC(=O)[C@H](CC(=O)O)NC(=O)[C@@H]2CCCN2C(=O)[C@H](CCC(=O)O)NC(=O)[C@@H]2CSSC[C@@H]3NC(=O)[C@H](C(C)C)NC(=O)[C@H](CC(C)C)NC(=O)[C@H](CC(N)=O)NC(=O)[C@@H]4CCCN4C(=O)[C@H](CCCNC(=N)N)NC(=O)[C@H](CSSC[C@H](NC(=O)[C@@H](N)CC(=O)O)C(=O)N[C@@H](CC(C)C)C(=O)NCC(=O)N[C@@H](C)C(=O)N[C@@H](Cc4ccccc4)C(=O)N[C@@H](CCCNC(=N)N)C(=O)N[C@@H](CCCCN)C(=O)N2)NC(=O)[C@H](CSSC[C@@H](C(=O)N[C@@H](CCCCN)C(=O)N[C@@H](Cc2ccc(O)cc2)C(=O)N[C@H](C(=O)N[C@@H](Cc2ccccc2)C(N)=O)C(C)C)NC(=O)[C@H](Cc2c[nH]c4ccccc24)NC(=O)[C@H](CCCNC(=N)N)NC(=O)[C@H](Cc2c[nH]cn2)NC(=O)[C@H](CC(C)C)NC(=O)[C@H](CCCNC(=N)N)NC(=O)[C@H](CO)NC3=O)NC(=O)[C@H](CCCCN)NC(=O)[C@H](CC(=O)O)NC1=O", "note": "(H-DCLGAFRKCEPD[Pra]DKCCRPNLVCSRLHRWCKYVF-NH2; disulfide 2-17, 9-23, 16-30)", "values": [{"measurement": "IC50", "setting": "hNav1.7 [1]", "value": 12, "unit": "nM"}, {"measurement": "IC50", "setting": "hNav1.5 [2]", "value": 15300, "unit": "nM"}]}
{"smiles": "CC[C@H](C)[C@@H]1NC(=O)[C@@H]2CSSC[C@@H]3NC(=O)[C@H](C(C)C)NC(=O)[C@H](CC(C)C)NC(=O)[C@H](CC(N)=O)NC(=O)[C@@H]4CCCN4C(=O)[C@H](CCCNC(=N)N)NC(=O)[C@H](CSSC[C@H](NC(=O)[C@@H](N)CC(=O)O)C(=O)N[C@@H](CC(C)C)C(=O)NCC(=O)N[C@@H](C)C(=O)N[C@@H](Cc4ccccc4)C(=O)N[C@@H](CCCNC(=N)N)C(=O)N[C@@H](CCCCN)C(=O)N2)NC(=O)[C@H](CSSC[C@@H](C(=O)N[C@@H](CCCCN)C(=O)N[C@@H](Cc2ccc(O)cc2)C(=O)N[C@H](C(=O)N[C@@H](Cc2ccccc2)C(N)=O)C(C)C)NC(=O)[C@H](Cc2c[nH]c4ccccc24)NC(=O)[C@H](CCCNC(=N)N)NC(=O)[C@H](Cc2c[nH]cn2)NC(=O)[C@H](CC(C)C)NC(=O)[C@H](CCCNC(=N)N)NC(=O)[C@H](CO)NC3=O)NC(=O)[C@H](CCCCN)NC(=O)[C@H](CC(=O)O)NC(=O)[C@H](CCCCNC(=O)CN2CCN(CC(=O)O)CCN(CC(=O)O)CCN(CC(=O)O)CC2)NC(=O)[C@H](CC(=O)O)NC(=O)[C@@H]2CCCN2C1=O", "note": "(H-DCLGAFRKCIPDK(DOTA)DKCCRPNLVCSRLHRWCKYVF-NH2; disulfide 2-17, 9-23, 16-30)", "values": [{"measurement": "IC50", "setting": "hNav1.7 [1]", "value": 27.5, "unit": "nM"}, {"measurement": "IC50", "setting": "hNav1.5 [2]", "value": "> 10000", "unit": "nM"}]}
{"smiles": "CC[C@@H]1NC(=O)[C@H](CC(=O)O)NC(=O)[C@@H]2CCCN2C(=O)[C@H]([C@@H](C)CC)NC(=O)[C@@H]2CSSC[C@@H]3NC(=O)[C@H](C(C)C)NC(=O)[C@H](CC(C)C)NC(=O)[C@H](CC(N)=O)NC(=O)[C@@H]4CCCN4C(=O)[C@H](CCCNC(=N)N)NC(=O)[C@H](CSSC[C@H](NC(=O)[C@@H](N)CC(=O)O)C(=O)N[C@@H](CC(C)C)C(=O)NCC(=O)N[C@@H](C)C(=O)N[C@@H](Cc4ccccc4)C(=O)N[C@@H](CCCNC(=N)N)C(=O)N[C@@H](CCCCN)C(=O)N2)NC(=O)[C@H](CSSC[C@@H](C(=O)N[C@@H](CCCCN)C(=O)N[C@@H](Cc2ccc(O)cc2)C(=O)N[C@H](C(=O)N[C@@H](Cc2ccccc2)C(N)=O)C(C)C)NC(=O)[C@H](Cc2c[nH]c4ccccc24)NC(=O)[C@H](CCCNC(=N)N)NC(=O)[C@H](Cc2c[nH]cn2)NC(=O)[C@H](CC(C)C)NC(=O)[C@H](CCCNC(=N)N)NC(=O)[C@H](CO)NC3=O)NC(=O)[C@H](CCCCN)NC(=O)[C@H](CC(=O)O)NC1=O", "note": "(H-DCLGAFRKCIPD[Abu]DKCCRPNLVCSRLHRWCKYVF-NH2; disulfide 2-17, 9-23, 16-30)", "values": [{"measurement": "IC50", "setting": "hNav1.7 [1]", "value": 4.7, "unit": "nM"}, {"measurement": "IC50", "setting": "hNav1.5 [2]", "value": "> 10000", "unit": "nM"}]}
{"smiles": "CC[C@H](C)[C@@H]1NC(=O)[C@@H]2CSSC[C@@H]3NC(=O)[C@H](C(C)C)NC(=O)[C@H](CC(C)C)NC(=O)[C@H](CC(N)=O)NC(=O)[C@@H]4CCCN4C(=O)[C@H](CCCNC(=N)N)NC(=O)[C@H](CSSC[C@H](NC(=O)[C@@H](N)CC(=O)O)C(=O)N[C@@H](CC(C)C)C(=O)N[C@@H](CCCNC(=N)N)C(=O)N[C@@H](Cc4ccccc4)C(=O)N[C@@H](CCSC)C(=O)N[C@@H](CCCNC(=N)N)C(=O)N[C@@H](CCCCN)C(=O)N2)NC(=O)[C@H](CSSC[C@@H](C(=O)N[C@@H](CCCCN)C(=O)N[C@@H](Cc2ccc(O)cc2)C(=O)N[C@H](C(=O)N[C@@H](Cc2ccccc2)C(N)=O)C(C)C)NC(=O)[C@H](Cc2c[nH]c4ccccc24)NC(=O)[C@H](CCCCN)NC(=O)[C@H](Cc2cnc[nH]2)NC(=O)[C@H]([C@@H](C)O)NC(=O)[C@H](CCCNC(=N)N)NC(=O)[C@H](CO)NC3=O)NC(=O)[C@H](CCCCN)NC(=O)[C@H](CC(=O)O)NC(=O)[C@H](CC(N)=O)NC(=O)[C@H](CC(=O)O)NC(=O)[C@@H]2CCCN2C1=O", "note": "[SEQ ID NO: 63] (H-DCLRFMRKCIPDNDKCCRPNLVCSRTHKWCKYVF-NH2; disulfide 2-17, 9-23, 16-30)", "values": [{"measurement": "IC50", "setting": "hNav1.5 [2]", "value": 5000, "unit": "nM"}, {"measurement": "IC50", "setting": "hNav1.7 [3]", "value": 210, "unit": "nM"}, {"measurement": "IC50", "setting": "hNav1.3", "value": 230, "unit": "nM"}, {"measurement": "IC50", "setting": "hNav1.5 [4]", "value": 20100, "unit": "nM"}]}
